Experimental findings from patent US20240287094A1, “NITROGEN-CONTAINING HETEROCYCLIC COMPOUND, PREPARATION METHOD THEREFOR, AND APPLICATION THEREOF IN MEDICINES” (Jiangsu Hengrui Pharmaceuticals Co., Ltd., priority 2021, published 2024) are described below.

Common to all, as to assay: Cell proliferation assay (CellTiter-Glo, intracellular ATP content)
Common to all, as to type: cell-based
In general terms: ATP-based viability assays read luminescence as a measure of living cells.

For one assay, the system named is MDA-MB-436 cells. Conditions: MDA-MB-436, 144 h; inhibition of proliferation, human breast cancer cells, 6 days incubation. The source says: (§1) The following method evaluates the inhibitory effect of the compounds of the present disclosure on the proliferation of DLD1, DLD1^BRCA2−/−, and MDA-MB-436 cells via IC50 by measuring the intracellular ATP content. The experimental method was briefly described as follows: • I. Experimental materials and instruments • 1. DLD1, human colon cancer cells (Cobioer, Nanjing, CBP60037) • 2. DLD1^BRCa2−/−, human BRCA2 gene knock-out colon cancer cells (Creative biogene, CSC-RT0015) • 3. MDA-MB-436, human breast cancer cells (ATCC, HTB-130) • 4. Fetal bovine serum (GIBCO, 10091-148) • 5. CellTite-Glo reagent (Promega, G^7573) • 6. 96-well cell culture plate (corning, 3903) • 7. Pancreatin (invitrogen, 25200-072) • 8. Microplate reader (BMG, PHERAsta) • 9. Cell counter (Countstar, Shanghai, IC1000) • II. Experimental procedures • DLD1 cells were cultured in an RPMI-1640 medium containing 10% FBS, and passaged 2-3 times a week in a passage ratio of 1:6 or 1:8. During passage, the cells were digested by pancreatin, transferred to a centrifuge tube, and centrifuged for 3 min at 1200 rpm. The supernatant was discarded, and a fresh medium was added to resuspend the cells. To a 96-well cell culture plate, 180 μL of the cell suspension was added at a density of 2.78×10^3 cells/mL. To peripheral wells of the 96-well plate, only 180 μL of complete medium was added.
MDA-MB-436 cells were cultured in a Leibovitz's L-15 medium containing 10% FBS, 10 μg/mL insulin, and 16 µg/mL glutathione, and passaged 2-3 times a week in a passage ratio of 1:3 or 1:5. During passage, the cells were digested by pancreatin, transferred to a centrifuge tube, and centrifuged for 3 min at 1200 rpm. The supernatant was discarded, and a fresh medium was added to resuspend the cells. To a 96-well cell culture plate, 180 μL of the cell suspension was added at a density of 8.34×10^3 cells/mL. To peripheral wells of the 96-well plate, only 180 μL of complete medium was added.
(§2) The culture plate was incubated in an incubator for 24 h (37° C., 5% CO2).
(§3) The test samples were diluted to 2 mM in DMSO and serially 3-fold diluted to the 10th concentration. Blank and control wells were set. 5 μL of the serially diluted test compound solutions was added to 95 μL of fresh medium. 20 μL of the medium solution containing the compound described above was added to the plate. The plate was incubated in an incubator (37° C., 5% CO2) for 6 days. 90 μL of CellTiter-Glo reagent was added to each well of the 96-well cell culture plate. The plate was let stand for 5-10 min in the dark at room temperature. The chemiluminescence signals were read by a PHERAstar system, and the data were processed by GraphPad software.

A further assay relates to DLD1^BRCA2−/− cells. Conditions: 144 h; inhibition of proliferation, human BRCA2 gene knock-out colon cancer cells, 6 days incubation.
Excerpt: as §1
DLD1^BRCA2−/− cells were cultured in an RPMI-1640 medium containing 10% FBS, and passaged 2-3 times a week in a passage ratio of 1:6 or 1:8. During passage, the cells were digested by pancreatin, transferred to a centrifuge tube, and centrifuged for 3 min at 1200 rpm. The supernatant was discarded, and a fresh medium was added to resuspend the cells. To a 96-well cell culture plate, 180 μL of the cell suspension was added at a density of 8.34×10^3 cells/mL. To peripheral wells of the 96-well plate, only 180 μL of complete medium was added.
as §2, §3

The next assay deals with DLD1 cells. Conditions: DLD-1, 144 h; inhibition of proliferation, human colon cancer cells, 6 days incubation.
Excerpt: as §1, §2, §3

Where only a bound is given, the exact number is not on record here.

The term IC50 denotes the concentration that inhibits the measured activity by half. Low readings indicate higher potency, high ones lower potency. As for `CCc1cc2ncc(CN3CCN4c5ccc(C(=O)NC)nc5COCC4C3)cc2[nH]c1=O` (racemic) [Example 3, (±)-3-((7-Ethyl-6-oxo-5,6-dihydro-1,5-naphthyridin-3-yl)methyl)-N-methyl-1,2,3,4,4a,5-hexahydro-7H-pyrazino[2,1-c]pyrido[3,2-e][1,4]oxazepine-9-carboxamide], the IC50 is 1.1 nM in the assay with MDA-MB-436 cells, 5.8 nM in the assay on DLD1^BRCA2−/− cells and more than 250 nM with DLD1 cells.
Take `CCc1cc2ncc(CN3CCN4c5ccc(C(=O)NC)nc5OCC4C3)cc2[nH]c1=O` (racemic) [Example 1, (±)-3-((7-Ethyl-6-oxo-5,6-dihydro-1,5-naphthyridin-3-yl)methyl)-N-methyl-1,2,3,4,4a,5-hexahydropyrazino[1,2-d]pyrido[2,3-b][1,4]oxazine-8-carboxamide]: the IC50 in the assay with MDA-MB-436 cells was 5.8 nM; in the assay on DLD1^BRCA2−/− cells, 7.9 nM; with DLD1 cells, more than 1000 nM.
`CCc1cc2ncc(CN3CCN4c5ccc(C(=O)NC)nc5COC[C@H]4C3)cc2[nH]c1=O` [Example 8, (R)-3-((7-Ethyl-6-oxo-5,6-dihydro-1,5-naphthyridin-3-yl)methyl)-N-methyl-1,2,3,4,4a,5-hexahydro-7H-pyrazino[2,1-c]pyrido[3,2-e][1,4]oxazepine-9-carboxamide]: the IC50 in the assay with MDA-MB-436 cells is 1.2 nM; in the assay on DLD1^BRCA2−/− cells, 7.84 nM; in the assay with DLD1 cells, more than 1000 nM.
`CCc1cc2ncc(CN3CCN4c5ccc(C(=O)NC)nc5N(C)CC4C3)cc2[nH]c1=O` (racemic) [Example 7, (±)-3-((7-Ethyl-6-oxo-5,6-dihydro-1,5-naphthyridin-3-yl)methyl)-N,6-dimethyl-2,3,4,4a,5,6-hexahydro-1H-pyrazino[1,2-a]pyrido[2,3-e]pyrazine-8-carboxamide]: the IC50 in the assay with MDA-MB-436 cells was 18.7 nM; in the assay with DLD1 cells, more than 1000 nM.
Turning to `CCc1cc2ncc(CN3CCN4c5ccc(C(=O)NC)nc5OC[C@H]4C3)cc2[nH]c1=O` [Example 2, (R)-3-((7-Ethyl-6-oxo-5,6-dihydro-1,5-naphthyridin-3-yl)methyl)-N-methyl-1,2,3,4,4a,5-hexahydropyrazino[1,2-d]pyrido[2,3-b][1,4]oxazine-8-carboxamide], the figures for the IC50 in the assay with MDA-MB-436 cells, in the assay with DLD1^BRCA2−/− cells and with DLD1 cells were 1 nM, 2.5 nM and more than 250 nM, respectively.
For `CCc1cc2ncc(CN3CCN4c5ccc(C(=O)NC)nc5NCC4C3)cc2[nH]c1=O` (racemic) [Example 6, (±)-3-((7-Ethyl-6-oxo-5,6-dihydro-1,5-naphthyridin-3-yl)methyl)-N-methyl-2,3,4,4a,5,6-hexahydro-1H-pyrazino[1,2-a]pyrido[2,3-e]pyrazine-8-carboxamide], the IC50 was 41.8 nM with MDA-MB-436 cells and more than 1000 nM with DLD1 cells.
